Experimental data from patent US8044034B2, “Nanoparticle derivatives of gemcitabine” (Centre National de la Recherche Scientifique (C.N.R.S.), priority 2004, dated 2011).
Read-outs that look alike come from different tables or passages of the source. Each block holds one molecule with its values, some of them ahead of it.

Experiments:
[1] = system: two cell lines; assay: Cytotoxic activity at different times in the presence and absence of inserts (MTT test); type: cell-based, human; settings: 100 μM SQgem nanoparticles, inserts 0.02 μm, n=3
Method: The cytotoxic activity of SQgem at different times was also determined by incubating 100 μM SQgem nanoparticles on two cell lines in the presence and absence of inserts (0.02 μm) (MTT test) (n=3).

[2] = system: MCF-7; assay: Cytotoxic activity, MTT test, 72 hours exposure; type: cell-based, human; settings: concentration at which 50% of the cells are alive, read-out: CI50 (μM) after 72 hours MCF-7
Method: (§1) The cytotoxic activity of SQgem was evaluated on two human tumoral cell lines (KB3-1, cancer of the naso-pharynx and MCF-7, breast cancer) by exposure to SQgem for 72 hours, and compared with the activity of gemcitabine.
(§2) The lines were maintained in DMEM medium with 10% foetal calf serum, 2 mM glutamine, 50 mg/l antibiotics, at 37° C., 5% CO2, 95% humidity. The cells were seeded onto a 96 well plate in an amount of 1×10^4/well; after 24 hours, different dilutions of gemcitabine and SQgem particle were added and incubated for 72 hours. Cellular viability was then determined by the MTT test. The results are expressed as CI50, which is the concentration of the molecule at which 50% of the cells are alive.

[3] = system: KB3-1; assay: Cytotoxic activity, MTT test, 72 hours exposure; type: cell-based, human; settings: for IC50: KB3-1 cells, 72 hours, MTT test, concentration at which 50% of the cells are alive, read-out: CI50 (μM) after 72 hours KB3-1
Method: as §1, §2

[4] = Surface tension at constant surface area (Wilhemy blade tensometer); type: physicochemical; settings: aqueous solution with 10% ethanol
Method: The surface tension of an aqueous SQgem solution was measured at constant surface area at different concentrations using a Wilhemy blade tensometer and compared with that of a solution of gemcitabine (Gem) and 4-(N)-stearoylgemcitabine (C18gem) (Myhren F et al, Gemcitabine derivatives, US patent no. 2002/0042391).
To prepare the various dilutions of SQgem and C18gem, it was necessary to start from an ethanolic solution; the percentage of ethanol in the final solution was 10% (the presence of ethanol reduces the surface tension of water from 72 mN/m to about 50 mN/m).

[5] = Nanoparticle size by quasi-elastic light diffusion (Coulter N4MD nanosizer); type: physicochemical
Method: The size of the colloidal particles obtained in example 1 were monitored by quasi-elastic light diffusion using a nanosizer (Coulter® N4MD, Coulter Electronics, Hialeah, USA).
The colloidal suspensions were diluted in MilliQ® water so that the number of particles per ml was suitable for the measuring device.

[6] = concentration in final suspension 1 mg/ml
[7] = concentration in final suspension 2 mg/ml
[8] = concentration in final suspension 4 mg/ml

- concentration at which the surface tension is reduced (nanoparticle formation) [4]: 4 µM
- Mean hydrodynamic diameter (nm) [5, 6]: 126.2 nm
- Polydispersity index [5, 6]: 0.26
- Mean hydrodynamic diameter (nm) [5, 7]: 150.4 nm
- Polydispersity index [5, 7]: 0.09
- Mean hydrodynamic diameter (nm) [5, 8]: 171.3 nm
- Polydispersity index [5, 8]: 0.08
Molecule: CC(C)=CCCC(C)=CCCC(C)=CCCC=C(C)CCC=C(C)CCC(=O)Nc1ccn([C@@H]2O[C@H](CO)[C@@H](O)C2(F)F)c(=O)n1 [SQgem, 4-(N)-squalenoylgemcitabine]
- anti-cancer activity with inserts with respect to cytotoxicity tests in the absence of an insert [1]: not reduced
- IC50 ([2]; MCF-7 cells): 4.8 ± 3.9 µM
- IC50 [3]: 8.8 ± 4.1 µM
- times more cytotoxic than the gemcitabine molecule ([3]; from CI50 on KB3-1 and MCF-7, 72 hours): five to seven times more toxic

- Mean hydrodynamic diameter (nm) [5, 6]: 217.5 ± 37.9 nm
- Polydispersity index [5, 6]: 0.038
Molecule: 4-(N)-squalenoyl acyclovir [SQACV]

Molecule: Nc1ccn([C@@H]2O[C@H](CO)[C@@H](O)C2(F)F)c(=O)n1 [Gemcitabine, 2′,2′-difluoro-2′-deoxycytidine]
- IC50 ([2]; Homo sapiens, MCF7, MCF-7 cells): 29 ± 13.9 µM
- IC50 ([3]; Homo sapiens, KB 3-1): 50.8 ± 49.8 µM

- Mean hydrodynamic diameter / size of the nanoparticles ([5]; concentration not given): 152 nm
- Polydispersity index ([5]; concentration not given): 0.1
Molecule: CC(C)=CCCC(C)=CCCC(C)=CCCC=C(C)CCC=C(C)CCC(=O)OC[C@@H]1CC[C@H](n2cnc3c(=O)[nH]cnc32)O1 [5′-squalenoyl-didanosine]

- Mean hydrodynamic diameter / size of the nanoparticles ([5]; concentration not given): 150-170 nm
Molecule: CC(C)=CCCC(C)=CCCC(C)=CCCC=C(C)CCC=C(C)CCC(=O)OC[C@H]1O[C@@H](n2cc(C)c(=O)[nH]c2=O)C[C@@H]1N=[N+]=[N-] [5′-squalenoyl-zidovudine, 3-azido-5-(5-methyl-2,4-dioxo-3,4-dihydro-2H-pyrimidin-1-yl)-tetrahydro-furan-2-yl-methyl (2S,3S,5R)-4,8,13,17,21-pentamethyl-docosa-4,8,12,16,20-pentaenoate]

- Mean hydrodynamic diameter (nm) [5, 6]: 110.4±34.1 nm
- Polydispersity index [5, 6]: 0.168
Molecule: CC(C)=CCCC(C)=CCCC(C)=CCCC=C(C)CCC=C(C)CCC(=O)Nc1ccn([C@@H]2O[C@H](CO)[C@@H](O)[C@@H]2O)c(=O)n1 [SQara-C, 4-(N)-squalenoylcytarabine]
